{"source": "paper PMC3469158", "about": "“Hesperidin-3′-O-Methylether Is More Potent than Hesperidin in Phosphodiesterase Inhibition and Suppression of Ovalbumin-Induced Airway Hyperresponsiveness” (Evidence-based Complementary and Alternative Medicine : eCAM, 2012)", "key": {"PDE1": {"tested_on": "PDE1", "experiment": "PDE1 activity in homogenate of guinea pig lungs or hearts ([3H]-cAMP/[3H]-cGMP two-step procedure)", "format": "biochemical", "conditions": "guinea pig lung or heart homogenate; read-out: IC50 for PDE1 inhibition", "protocol": "(§1) Activities of PDE1∼5 in the homogenate of guinea pig lungs or hearts were measured by a two-step procedure according to the previous method, using cAMP with [^3 H]-cAMP or cGMP with [^3 H]-cGMP as substrates. The enzyme preparation (25 μL) was incubated for 30 min at 37°C in a total assay volume of 100 μL containing 50 mM Tris-HCl (pH 7.4), 3 mM MgCl2, 1 mM dithiothreitol, 0.05% BSA, and 1 μM cAMP with 0.2 μCi [^3 H]-cAMP as a substrate alone or in the presence of 0.1 unit calmodulin with 10 μM CaCl2 or 5 μM cGMP, and 1 μM cGMP with 0.2 μCi [^3 H]-cGMP as another substrate alone or in the presence of 0.1 unit calmodulin with 10 μM CaCl2. […] The reagents and homogenate were mixed on ice, and the reaction was initiated by transferring the mixture to a water bath at 37°C. Following a 30 min incubation, the reaction was stopped by transferring the reaction vessel to a bath of boiling water for 3 min. After cooling on ice, 20 μL of a 1 mg/mL solution of Crotalus atrox snake venom was added to the reaction mixture, and the mixture was incubated at 37°C for 10 min. Unreacted [^3 H]-cAMP or [^3 H]-cGMP was removed by the addition of 500 μL of a 1-in-1 Tris-HCl (40 mM) buffer suspension of Dowex resin (1 × 2-400) with incubation on ice for 30 min. Each tube was then centrifuged at 3700 g for 2 min, and 100 μL of the supernatant was removed for liquid scintillation counting."}, "[1]": {"tested_on": "duration of xylazine/ketamine-induced anesthesia", "experiment": "Xylazine/ketamine-induced anesthesia (surrogate of emesis)", "format": "in vivo, BALB/c mice", "conditions": "300 μmol/kg s.c., 1 h before anesthesia; mice", "protocol": "According to a previously described method and modified by us, hesperidin, hesperidin-3′-O-methylether (each 300 μmol/kg, subcutaneously (s.c.)), or Ro 20-1724 (0.01∼1 μmol/kg, s.c.), a reference drug, was, respectively, injected into 8∼12-week-old female BALB/c mice 1, 1 or 0.25 h prior to an i.p. injection of xylazine (10 mg/kg)/ketamine (70 mg/kg). The vehicle (control) for hesperidin, hesperidin-3′-O-methylether, or Ro 20-1724 was a mixture of DMSO : PEG 400 : saline (1 : 1 : 8, v/v). After the loss of the righting reflex (i.e., when a mouse remained on its back and no longer spontaneously righted itself to a prone position), the duration of anesthesia was measured until its return as the endpoint."}, "IL-4": {"tested_on": "IL-4", "design": "method as in PMID 21287361", "conditions": "10 mg/kg (16.38 μmol/kg, p.o.); similar animal model; cited from earlier work"}, "[2]": {"tested_on": "inflammatory cells in BALF", "experiment": "Inflammatory cell counts in BALF of sensitized and challenged mice", "format": "in vivo, BABL/c mice", "protocol": "According to the schedule (Figure 2), ten female BABL/c mice in each group were sensitized by an intraperitoneal (i.p.) injection of 20 μg of ovalbumin emulsified in 2.25 mg of an aluminum hydroxide gel, prepared from aluminum sulfate hexadecahydrate, in a total volume of 100 μL on days 0 and 14. Mice were challenged via the airway using 1% ovalbumin in saline for 30 min on days 28, 29, and 30 by ultrasonic nebulization. After the last ovalbumin challenge, AHR was assessed on day 32 (48 h after 1% ovalbumin provocation) in each group. Each group of mice was orally (p.o.) administered the vehicle (control), 30∼100 μmol/kg of hesperidin or 10∼100 μmol/kg of hesperidin-3′-O-methylether 2 h before and 6 and 24 h after ovalbumin provocation. For comparison, sham-treated mice were challenged with saline instead of 1% ovalbumin (nonchallenged). The vehicle, a mixture of DMSO : PEG 400 : saline (1 : 1 : 8, v/v), hesperidin, or hesperidin-3′-O-methylether was administered (p.o.) at a volume of 0.01 mL/g of body weight. AHR was assessed by barometric plethysmography using a whole-body plethysmograph (WBP) and analyzed using software of Life Science Suite P3 Analysis Modules (Gould, LDS Test and Measurement LLC, Valley View, OH, USA) in unrestrained animals. Mice were placed into the main chamber of the WBP, and the baseline enhanced pause (P enh) value was determined. Then mice were first nebulized with phosphate-buffered saline (PBS), and subsequently with increasing doses (6.25∼50 mg/mL) of methacholine for 3 min for each nebulization, followed by readings of breathing parameters for 3 min after each nebulization to determine P enh values. Twenty-four hours after P enh determination, these mice were anesthetized with pentobarbital (50 mg/kg, i.p.), and the lungs were lavaged via a tracheal tube with PBS (1 × 1.0 mL, 37°C). After lavage, blood was collected from the jugular vein and allowed to sit so that it would coagulate. The collected bronchoalveolar lavage fluid (BALF) and coagulated blood were respectively centrifuged at 630 g for 7 min and at 3700 g for 10 min at 4°C. After centrifugation, the BALF and serum supernatants were stored at −20°C until determinations of cytokines, including interleukin (IL)-2, IL-4, IL-5, tumor necrosis factor (TNF)-α, and interferon (IFN)-γ by flow cytometric methods using mouse Th1/Th2 cytokine CBA kits, and of a total immunoglobulin (Ig)E and IgG2a using ELISA kits (Pharmingen, San Diego, CA, USA) according to the respective recommendations of the manufacturers. Ovalbumin-specific IgE was measured as described previously. Wells were coated with 100 μL of ovalbumin (20 μg/mL) instead of the capture antibody. Levels are expressed in arbitrary units, where 1 arbitrary unit equals the optical density of the sample divided by the optical density of unchallenged mouse serum or BALF (standard). The BALF pellet was resuspended in ACK lysing buffer (1.658 g NH4Cl, 0.2 g KHCO3, and […] EDTA in 200 mL of water) to lyse the residual erythrocytes in each sample. The number of inflammatory cells was counted using a hemocytometer (Hausser Scientific, Horsham, PA, USA). Cytospin slides were stained and cell differentials were determined in a blinded fashion by counting at least 100 cells under light microscopy. All undetectable data (<1 pg/mL) of cytokines were taken as 0.5 pg/mL."}, "PDE4": {"tested_on": "PDE4", "experiment": "PDE4 activity in homogenate of guinea pig lungs or hearts (PDE4L)", "format": "biochemical", "conditions": "guinea pig lung or heart homogenate; read-out: IC50 for PDE4 inhibition (PDE4L value)", "protocol": "as §1"}}, "data": [{"compound": "COc1ccc([C@@H]2CC(=O)c3c(O)cc(O[C@@H]4O[C@H](CO[C@@H]5O[C@@H](C)[C@H](O)[C@@H](O)[C@H]5O)[C@@H](O)[C@H](O)[C@H]4O)cc3O2)cc1O", "note": "[hesperidin]", "values": [{"measurement": "IC50", "setting": "PDE1", "result": "> 100", "unit": "µM"}, {"measurement": "duration of xylazine/ketamine-induced anesthesia", "setting": "[1]", "result": "Neither hesperidin nor hesperidin-3′-O-methylether (each 300 μmol/kg, s.c.) influenced the duration"}, {"measurement": "level of IL-4", "setting": "IL-4", "result": "insignificantly inhibit"}, {"measurement": "numbers of all inflammatory cells examined in BALF", "setting": "[2]; 30 μmol/kg p.o.", "result": "unaffected"}, {"measurement": "increases in numbers of total inflammatory cells, macrophages, lymphocytes, neutrophils, and eosinophils in BALF", "setting": "[2]; 100 μmol/kg p.o.", "result": "significantly suppressed"}, {"measurement": "IC50", "setting": "PDE4", "result": "> 100", "unit": "µM"}]}]}
